Measured values reported in patent publication US10327423B2, “Antimicrobial compounds and compositions, and uses thereof” (Akeso Biomedical, Inc., priority 2014, dated 2019).
Entries after “also recorded” stand apart in the source; their conditions may differ.

What was measured:
[1] = test system: Staphylococcus aureus ATCC 25923; experiment: Biofilm formation on plastic coated UV beads; type: cell-based; settings: different concentrations of Fe-QA; T=24 h
Experimental: Bacteria (Enterococcus faecalis NCTC 12697, Staphylococcus epidermidis F1513 and Staphylococcus aureus ATCC 25923) were grown on Brain heart infusion (BHI) passaged to new medium either containing Fe-QA or alone. Growth suspensions were prepared at 0.0001 OD/ml and then allowed to grow at 37° C. under normal atmospheric conditions for 24 h in BHI with plastic coated UV beads (Lascells). […], 10 μl suspension was serially diluted 10 fold to 10-3, 10-4, 10-5, 10-6, 10-7, 10-8. For each dilution, 10 μl was spotted on BHI agar plates and colonies counted after 24 h. The beads were also removed washed in PBS before adding to 1 ml PBS. After vortex mixing, 10 μl of the cell suspension was serially diluted as above and cell counts carried out.
The effect of Fe-QA on biofilm formation by S. aureus was tested as described in the materials and methods of Example 1.

[2] = test system: Pseudomonas aeruginosa PAO-1; experiment: Biofilm coverage rate on glass slides (SYTO17, laser scanning microscopy); type: cell-based; settings: Fe-QA 100 μM; 72 hours
Experimental: (§1) Pseudomonas aeruginosa PAO-1, and a clinically isolated uropathogenic Escherichia coli UPEC-536 were routinely grown on either LB (Luria-Bertani, Oxoid, UK) agar plates at 37° C. or in broth at 37° C. with 200 rpm shaking. UV-sterilized glass slides were incubated in either 15 mL RPMI-1640 defined medium (Sigma, UK) or 15 mL RPMI-1640 with Fe-QA inoculated with diluted (OD600=0.01) bacteria from overnight cultures at 37° C. with 60 rpm shaking for 72 hours. The slides were removed from bacterial culture and washed with 15 mL phosphate buffered saline at room temperature for 5 minutes three times and then rinsed with distilled H2O. After washing, the slides were stained with 20 μM SYTO17 dye (Invitrogen, UK) at room temperature for 30 minutes. After removing excess staining dye and air-drying, the samples were examined using a Carl Zeiss LSM 700 Laser Scanning Microscope with ZEN 2009 imaging software (Carl Zeiss, Germany). The coverage rate of bacteria on the surface was analysed using open source Image J 1.44 software (National Institute of Health, US).

[3] = test system: uropathogenic Escherichia coli UPEC-536; experiment: as above; type: cell-based; settings: Fe-QA 0.1 μM, 1 μM, aM and 100 μM; 72 hours
Experimental: as §1

[4] = test system: Pseudomonas aeruginosa; experiment: Planktonic growth rate in RPMI-1640; type: cell-based; settings: Fe-QA 100 μM
Experimental: The growth rate of Uropathogenic E. coli UPEC-536 in RPMI-1640 media over a period of 24 hours was compared to the growth rate of UPEC in RPMI-1640 media, but in the presence of 100 μM Fe-QA. The growth rate of Pseudomonas aeruginosa in RPMI-1640 media was also compared to the growth rate of Pseudomonas aeruginosa in RPMI-1640 media, but in the presence of 100 μM Fe-QA.

[5] = test system: kanamycin resistant strain of Enteropathogenic E. coli EPEC (E2348/69); experiment: Growth of kanamycin resistant EPEC with Fe-QA and kanamycin (patch on growth plate, growth curve); type: cell-based, Escherichia coli
Experimental: A kanamycin resistance gene was introduced into the genome of Enteropathogenic E. coli EPEC, (E2348/69), genotype; Wildtype EPEC-O-17:H6 allowing the kanamycin resistant strain of EPEC to grow in the presence of a patch that has been immersed in kanamycin (at a concentration of 50 μg/mL). The kanamycin resistant strain of EPEC was then immersed in a patch in a solution of Fe-QA.

[6] = test system: Campylobacter jejuni NCTC 11168 (wildtype and strain carrying a kanamycin resistance gene); experiment: Patch test on growth plates with Fe-QA and kanamycin; type: cell-based
Excerpt: The wildtype C. jejuni grew normally, and was not affected by FeQ. A patch was also immersed in a solution of kanamycin and Fe-QA, and placed on a growth plate of wildtype C. jejuni. The growth of C. jejuni was impacted showing that wildtype C. jejuni is sensitive to the presence of kanamycin.
The patch experiments were repeated with a Campylobacter jejuni NCTC 11168 strain carrying a kanamycin resistance gene wherein patches were immersed in (i) kanamycin only, (ii) Fe-QA only, and (iii) kanamycin and Fe-QA. The growth of the C. jejuni strain carrying the kanamycin resistance gene was not impacted by the patches immersed in (i) kanamycin and (ii) Fe-QA, however, the growth was impacted by the patch that was immersed in both kanamycin and Fe-QA.

[7] = test system: Pseudomonas aeruginosa (PAO-1 Clinical); experiment: Growth curve of antibiotic resistant clinical isolate with kanamycin and FeQ; type: cell-based; settings: kanamycin and FeQ added to growth media
Experimental: The impact on the growth curve of an antibiotic resistant clinical isolate of Pseudomonas aeruginosa (PAO-1 Clinical) grown in the presence of kanamycin and FeQ versus the clinical isolate grown in the presence of (i) FeQ, (ii) kanamycin or (iii) without addition of FeQ or kanamycin (control) was assessed.

[8] = test system: bacterial flora present in the mouth; experiment: Biofilm formation on extracted human teeth (CEPLAC staining); type: cell-based; settings: FeQ 340 μM; 48 hours of culturing
Experimental: Molar teeth were extracted from human patients, and mouth swabs taken from each patient to obtain samples of each patient's bacterial flora present in the mouth. The mouth swabs were cultured in the laboratory using LB media in order to grow bacterial populations ordinarily present in the mouth of each patient. The extracted teeth were washed and brushed extensively using PBS buffer and ethanol. Each patient's tooth was then placed in the bacterial culture prepared from that patient's bacterial flora sample, and cultured aerobically for 24 hours in LB media. The teeth were then stained with CEPLAC™ (Manx Healthcare Ltd, Warwick, UK), and washed three times with PBS-Tween (50 mL) to determine if biofilm had been formed on the teeth.
All teeth stained red indicating the presence of biofilm on the teeth after just 24 hours. The same teeth were then cleaned using PBS buffer and ethanol, and the procedure repeated except with 48 hours of culturing in the presence of FeQ (340 μM).

[9] = Treatment of an acne patient; type: in vivo, human
Experimental: A patient was treated continuously for 30 days by applying a solution of ferric quinate (340 μM) to their acne vulgarism (“acne”) once each day. Within 5 days of the start of treatment, their acne, which had not previously responded to treatment with antibiotics, began to show signs of healing.

For `O=C1[O][Fe]23([O]C(=O)[C@]4(C[C@@H](O)[C@H](O)[C@H](O)C4)[O]2)([O]C(=O)[C@]2(C[C@@H](O)[C@H](O)[C@H](O)C2)[O]3)[O][C@@]12C[C@@H](O)[C@H](O)[C@H](O)C2` [FeQ, a complex of quinic acid with Fe III], the “biofilm formation on plastic coated UV beads” value [1] was “inhibited”, the “biofilm formation (coverage rate on glass slide)” value [2] was “inhibits” and the “biofilm formation (coverage rate on glass slide)” value [3] was “inhibits”. The planktonic growth rate [4] was “does not inhibit the growth”, the “rate of growth (growth curve) relative to kanamycin alone” value ([5]; kanamycin and Fe-QA) was “inhibited” and the “rate of growth (growth curve)” value ([5]; medium only containing Fe-QA) was “most rapid growth”. The “bacterial growth on plate around patch” value ([5]; patch immersed in Fe-QA alone) was “no impact on the growth; also recorded: no significant effect on bacterial growth”, the “bacterial growth on plate around patch” value ([5]; patch immersed in Fe-QA and kanamycin (50 μg/mL)) was “fail to grow” and the “growth on plate around patch” value ([6]; strain carrying kanamycin resistance gene, patch with Fe-QA only) was “not impacted”. For the same molecule, the “growth on plate around patch” value ([6]; strain carrying kanamycin resistance gene, patch with kanamycin and Fe-QA) was “retarded; also recorded: impacted”, the “growth on plate around patch” value ([6]; wildtype C. jejuni (no kanamycin resistance gene), patch with Fe-QA alone) was “not affected” and the “growth on plate around patch” value ([6]; wildtype C. jejuni, patch with kanamycin and Fe-QA) was “impacted”. The “growth rate versus kanamycin or FeQ alone” value [7] was “large reduction in the growth rate”, the “growth rate versus kanamycin or FeQ alone” value ([7]; listed as Fe-QA) was “retarded” and the “biofilm on human teeth (red CEPLAC staining)” value [8] was “no teeth stained red”. The “state of acne after treatment for 30 days” value ([9]; ferric quinate solution 340 μM once each day) was “completely healed” and the “recurrence of acne after discontinuation of treatment for over one year” value ([9]; ferric quinate solution 340 μM once each day for 30 days) was “did not recur”.
